Measurements taken from patent publication US8017612B2, “Piperazine compound and use thereof as a HCV polymerase inhibitor” (priority 2006, dated 2011).

Columns and labels:
[1] = target: T1, HCV polymerase (NS5B) type 1a (Hepatitis C virus genotype 1a, UniProt P26664); experiment: Assay of enzyme (HCV polymerase) inhibitory activity, type 1a enzyme; format: biochemical, HCV type 1a (cloned from the blood of patients); conditions: HCV polymerase inhibitory activity IC50, 1a, type 1a enzyme
T1 construct: made in house; host or cells: Escherichia coli (by the 'similar method' of the 1b enzyme)
Procedure, shortened: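 His-tagged NS5B, C-terminal 47 residues deleted, type 1a at 1.5 μg/ml, with 5 μg/ml HCV 3′UTR substrate RNA, 50 μM ATP/GTP/CTP, 2 μM UTP plus [3H]UTP, pH 7.5 Tris, 5 mM MgCl2; 60 min at 25° C. TCA-precipitated RNA counted by scintillation; IC50 from radioactivity with vs. without compound.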

[2] = target: T2, HCV polymerase (NS5B) type 1b (Hepatitis C virus genotype 1b, UniProt P26663); experiment: Assay of enzyme (HCV polymerase) inhibitory activity, type 1b enzyme; format: biochemical, HCV BK strain (type 1b); conditions: HCV polymerase inhibitory activity IC50, 1b, type 1b enzyme
T2 construct: a region encoding NS5B (J Virol 1991 March, 65(3), 1105-13, 544 amino acids after deletion of 47 amino acids on the C-terminal); 6xHis (C); made in house; host or cells: Escherichia coli
Procedure, shortened: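 His-tagged, C-terminally truncated NS5B (BK strain, 1b; 0.5 μg/ml) incubated with compound 60 min at 25 °C on 3′UTR-derived substrate RNA (5 μg/ml), 50 μM ATP/GTP/CTP, 2 μM UTP plus [3H]UTP, pH 7.5. Acid-precipitated RNA counted; IC50 from radioactivity with and without compound.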

| Structure (SMILES) | IC50 [1] [nM] | IC50 [2] [nM] |
| --- | --- | --- |
| CCC(F)(F)c1ccc(CNC(=O)[C@H]2CN(c3cnc4ccc(Br)cc4n3)CCN2S(=O)(=O)c2ccc(OC(F)(F)F)cc2)cc1 [Example 685, (R)-4-(7-bromo-quinoxalin-2-yl)-1-(4-trifluoromethoxy-benzenesulfonyl)-piperazine-2-carboxylic acid 4-(1,1-difluoro-propyl)-benzylamide] | 100 to 1000 | 100 to 1000 |
| CCC(F)(F)c1ccc(CNC(=O)[C@H]2CN(c3cnc4cncnc4n3)CCN2S(=O)(=O)c2ccc(C(F)(F)F)cc2)cc1 [Example 686, (R)-4-pteridin-7-yl-1-(4-trifluoromethyl-benzenesulfonyl)-piperazine-2-carboxylic acid 4-(1,1-difluoro-propyl)-benzylamide] | < 100 | < 100 |
| CCCc1ccc(CNC(=O)[C@H]2CN(c3cnc(C(=O)O)cn3)CCN2S(=O)(=O)c2ccc(Br)cc2)cc1 [Example 687, (R)-4-(4-bromo-benzenesulfonyl)-3-(4-propyl-benzylcarbamoyl)-3,4,5,6-tetrahydro-2H-[1,2′]bipyrazinyl-5′-carboxylic acid] | < 100 | < 100 |
| CCC(F)(F)c1ccc(CNC(=O)[C@H]2CN(c3cnc4cc(Cl)ccc4n3)CCN2S(=O)(=O)c2ccc(OC(F)(F)F)cc2)cc1 [Example 688, (R)-4-(6-chloro-quinoxalin-2-yl)-1-(4-trifluoromethoxy-benzenesulfonyl)-piperazine-2-carboxylic acid 4-(1,1-difluoro-propyl)-benzylamide] | 100 to 1000 | 100 to 1000 |
| CC(C)(C)c1ccc(CNC(=O)[C@H]2CN(c3cnc4cnccc4n3)CCN2S(=O)(=O)c2ccc(OC(F)(F)F)cc2)cc1 [Example 689, (R)-4-pyrido[3,4-b]pyrazin-2-yl-1-(4-trifluoromethoxy-benzenesulfonyl)-piperazine-2-carboxylic acid 4-tert-butyl-benzylamide] | < 100 | < 100 |
| CCC(F)(F)c1ccc(CNC(=O)[C@H]2CN(c3cnc4nsnc4n3)CCN2S(=O)(=O)c2ccc(OC(F)(F)F)cc2)cc1 [Example 691, (R)-4-[1,2,5]thiadiazolo[3,4-b]pyrazin-5-yl-1-(4-trifluoromethoxy-benzenesulfonyl)-piperazine-2-carboxylic acid 4-(1,1-difluoro-propyl)-benzylamide] | < 100 | < 100 |
| CCC(F)(F)c1ccc(CNC(=O)[C@H]2CN(c3cnc4cnc(C)nc4n3)CCN2S(=O)(=O)c2ccc(OC(F)(F)F)cc2)cc1 [Example 692, (R)-4-(2-methyl-pteridin-7-yl)-1-(4-trifluoromethoxy-benzenesulfonyl)-piperazine-2-carboxylic acid 4-(1,1-difluoro-propyl)-benzylamide] | < 100 | < 100 |
| CCOC(=O)c1ccc2nc(N3CCN(S(=O)(=O)c4ccc(OC(F)(F)F)cc4)[C@@H](C(=O)NCc4ccc(C(F)(F)CC)cc4)C3)cnc2c1 [Example 693, 2-[(R)-3-[4-(1,1-difluoro-propyl)-benzylcarbamoyl]-4-(4-trifluoromethoxy-benzenesulfonyl)-piperazin-1-yl]-quinoxaline-6-carboxylic acid ethyl ester] | > 1000 | 100 to 1000 |
| CCC(F)(F)c1ccc(CNC(=O)[C@H]2CN(c3nc4cnncc4s3)CCN2S(=O)(=O)c2ccc(OC(F)(F)F)cc2)cc1 [Example 694, (R)-4-thiazolo[4,5-d]pyridazin-2-yl-1-(4-trifluoromethoxy-benzenesulfonyl)-piperazine-2-carboxylic acid 4-(1,1-difluoro-propyl)-benzylamide] | < 100 | < 100 |
| CCC(F)(F)c1ccc(CNC(=O)[C@H]2CN(c3cnc4cncnc4n3)CCN2S(=O)(=O)c2ccc(C(C)(C)C)cc2)cc1 [Example 695, (R)-1-(4-tert-butyl-benzenesulfonyl)-4-pteridin-7-yl-piperazine-2-carboxylic acid 4-(1,1-difluoro-propyl)-benzylamide] | < 100 | < 100 |
| CCC(F)(F)c1ccc(CNC(=O)[C@H]2CN(c3cnc4cncnc4n3)CCN2S(=O)(=O)c2ccc(-c3ccccc3)cc2)cc1 [Example 696, (R)-1-(biphenyl-4-sulfonyl)-4-pteridin-7-yl-piperazine-2-carboxylic acid 4-(1,1-difluoro-propyl)-benzylamide] | < 100 | < 100 |
| CCC(F)(F)c1ccc(CNC(=O)[C@H]2CN(c3cnc4cncnc4n3)CCN2S(=O)(=O)c2ccc(Cl)cc2)cc1 [Example 697, (R)-1-(4-chloro-benzenesulfonyl)-4-pteridin-7-yl-piperazine-2-carboxylic acid 4-(1,1-difluoro-propyl)-benzylamide] | < 100 | < 100 |
| CCC(F)(F)c1ccc(CNC(=O)[C@H]2CN(c3cnc4cncnc4n3)CCN2S(=O)(=O)c2ccc([N+](=O)[O-])cc2)cc1 [Example 698, (R)-1-(4-nitro-benzenesulfonyl)-4-pteridin-7-yl-piperazine-2-carboxylic acid 4-(1,1-difluoro-propyl)-benzylamide] | < 100 | < 100 |
| CCCc1ccc(CNC(=O)[C@H]2CN(c3cnc(C(=O)O)cn3)CCN2S(=O)(=O)c2ccc(Br)s2)cc1 [Example 699, (R)-4-(5-bromo-thiophene-2-sulfonyl)-3-(4-propyl-benzylcarbamoyl)-3,4,5,6-tetrahydro-2H-[1,2′]bipyrazinyl-5′-carboxylic acid] | < 100 | < 100 |
| CCCc1ccc(CNC(=O)[C@H]2CN(c3cnc(C(=O)O)cn3)CCN2S(=O)(=O)c2ccc(C(C)(C)C)cc2)cc1 [Example 700, (R)-4-(4-tert-butyl-benzenesulfonyl)-3-(4-propyl-benzylcarbamoyl)-3,4,5,6-tetrahydro-2H-[1,2′]bipyrazinyl-5′-carboxylic acid] | < 100 | < 100 |
| CCCc1ccc(CNC(=O)[C@H]2CN(c3cnc(C(=O)O)cn3)CCN2S(=O)(=O)c2ccc(-c3ccccc3)cc2)cc1 [Example 701, (R)-4-(biphenyl-4-sulfonyl)-3-(4-propyl-benzylcarbamoyl)-3,4,5,6-tetrahydro-2H-[1,2′]bipyrazinyl-5′-carboxylic acid] | < 100 | < 100 |
| CC(=O)N1CCN(S(=O)(=O)c2ccc(OC(F)(F)F)cc2)[C@@H](C(=O)NCc2ccc(CCCO)cc2)C1 [Example 702, (R)-4-acetyl-1-(4-trifluoromethoxy-benzenesulfonyl)-piperazine-2-carboxylic acid 4-(3-hydroxy-propyl)-benzylamide] | > 1000 | > 1000 |
| CCCn1cc(CNC(=O)[C@H]2CN(C(C)=O)CCN2S(=O)(=O)c2ccc(OC(F)(F)F)cc2)cn1 [Example 703, (R)-4-acetyl-1-(4-trifluoromethoxy-benzenesulfonyl)-piperazine-2-carboxylic acid (1-propyl-1H-pyrazol-4-ylmethyl)-amide] | > 1000 | > 1000 |
| CCC(F)(F)c1ccc(CNC(=O)[C@H]2CN(C3=NC(=O)CS3)CCN2S(=O)(=O)c2ccc(OC(F)(F)F)cc2)cc1 [Example 704, (R)-4-(4-oxo-4,5-dihydro-thiazol-2-yl)-1-(4-trifluoromethoxy-benzenesulfonyl)-piperazine-2-carboxylic acid 4-(1,1-difluoro-propyl)-benzylamide] | < 100 | < 100 |
